From patent US20150329878A1, “FERMENTATIVE PRODUCTION OF A HYDROCARBON” (GLOBAL BIOENERGIES, priority 2012, published 2015)
Like-named read-outs stand apart in the source and are kept apart here.

Assays:
[1] = in the presence of CO2 and N2 mixtures; cited from earlier work
[2] = cited from earlier work
[3] = system: Escherichia coli, strain MG1655; assay: Effect of high partial pressure of carbon dioxide on growth and metabolism of E. coli cultured on glucose (batch fermenters); format: cell-based; conditions: pCO2~800 mbar
Description: Escherichia coli, strain MG1655 (ATCC Number 700926; American Type Culture Collection (ATCC), Manassas, Va.), was grown in batch mode in 1.4 L Multifors fermenters (Infors A G, Basel, Switzerland) equipped with temperature, pH and dO (dissolved oxygen) control. Initially, the fermenters contained in 1 L total volume: KH2PO4, 7.5 g/L; MgSO4.7H2O, 2.0 g/L; citric acid, 1.83 g/L; ferric ammonium citrate, 0.3 g/L; CaCl2.2H2O, 0.2 g/L; sulfuric acid (98%), 1.2 mL/L; yeast extract, 5 g/L; and glucose (10 g/L). After sterilization, 10 mL of a trace metal mixture and 1 mL of a thiamine solution (150 mM) was added and the medium was adjusted to the desired pH (see below) with 3 M NaOH. The trace metal mixture contained: MnSO4.H2O, 3 g/L; NaCl, 1 g/L; FeSO4.7H2O, 0.1 g/L; CoCl2.6H2O, 0.1 g/L; ZnSO4.7H2O, 0.1 g/L; CuSO4.5H2O, 0.0064 g/L; H3BO3, 0.01 g/L; and Na2MoO4.2H2O, 0.01 g/L. In one set of three fermenters, gas flow (air) was fixed at 0.5 VVM (volume per volume per minute) and pH was automatically maintained at pH 6.2, pH 6.5 and 6.8 with the addition of 3 M NaOH. […]
After equilibration with the gases, evident by the cessation of NaOH addition, the fermenters were inoculated at an initial OD600 of approximately 0.4 absorbance units (AU). […]

microbial growth = conditions: pCO2~300 mbar; Baez A et al. 2009; cited from earlier work

Row | Compound | flammable minimum oxygen concentration (MOC) value [1] | solubility in water ([2]; at 1 bar and 20° C.) | solubility in water ([2]; at 1 bar and 25° C.) | effect on growth rate of E. coli [3] | effect on microbial growth (microbial growth)
1 | C=CC=C [1,3-butadiene] | about 10.5% | about 735 ppm |  |  | 
2 | C=C(C)C [isobutene] | about 13% | about 260 ppm |  |  | 
3 | C=CC(=C)C [isoprene] | about 9.7% |  | about 642 ppm |  | 
4 | C=CC [propylene] | about 13% |  |  |  | 
5 | O=C=O [carbon dioxide] |  |  |  | only slight impairments of growth rate | significantly inhibit microbial growth
